For 1 molecule, remaining activity results are on record in patent US20080051466A1, “Isoalpha acid based protein kinase modulation cancer treatment” (Metaproteomics, LLC, priority 2006, published 2008).

SMILES strings stand for the structures.

Holding throughout (assay): KinaseProfiler Assay
Common to all, as to format: biochemical

Experiment [1] concerns the target T1, EphA8 (Homo sapiens, UniProt P29322).
T1 sequence (P29322 28-1005): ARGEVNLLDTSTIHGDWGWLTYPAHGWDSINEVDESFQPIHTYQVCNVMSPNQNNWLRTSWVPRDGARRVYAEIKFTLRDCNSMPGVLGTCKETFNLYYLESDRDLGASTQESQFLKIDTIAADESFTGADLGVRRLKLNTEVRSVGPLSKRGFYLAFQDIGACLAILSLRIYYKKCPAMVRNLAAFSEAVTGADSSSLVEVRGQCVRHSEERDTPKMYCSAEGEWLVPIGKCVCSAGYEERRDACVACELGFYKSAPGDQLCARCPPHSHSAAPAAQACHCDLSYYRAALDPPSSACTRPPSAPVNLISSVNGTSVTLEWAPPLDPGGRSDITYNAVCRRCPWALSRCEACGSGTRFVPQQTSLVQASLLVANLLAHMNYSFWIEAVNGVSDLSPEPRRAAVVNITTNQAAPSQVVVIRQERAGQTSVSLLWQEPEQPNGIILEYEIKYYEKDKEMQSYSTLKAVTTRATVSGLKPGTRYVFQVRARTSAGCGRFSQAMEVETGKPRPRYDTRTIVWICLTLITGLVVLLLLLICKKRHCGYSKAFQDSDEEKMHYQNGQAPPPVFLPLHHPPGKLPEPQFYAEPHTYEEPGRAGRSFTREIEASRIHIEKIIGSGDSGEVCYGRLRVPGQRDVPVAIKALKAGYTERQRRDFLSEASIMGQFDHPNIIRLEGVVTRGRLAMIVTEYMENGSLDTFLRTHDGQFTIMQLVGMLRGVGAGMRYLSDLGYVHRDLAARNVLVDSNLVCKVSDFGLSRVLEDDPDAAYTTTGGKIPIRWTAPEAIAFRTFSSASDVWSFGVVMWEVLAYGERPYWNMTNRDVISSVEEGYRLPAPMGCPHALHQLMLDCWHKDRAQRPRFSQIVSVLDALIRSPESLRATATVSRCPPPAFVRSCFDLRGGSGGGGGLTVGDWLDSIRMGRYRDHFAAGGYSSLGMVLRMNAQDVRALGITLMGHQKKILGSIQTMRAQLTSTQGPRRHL
The following applies: read-out: EphA8, % of Control.

Experiment [2] has as its target T2, CHK1 (Homo sapiens, UniProt O14757).
T2 sequence (O14757 1-476): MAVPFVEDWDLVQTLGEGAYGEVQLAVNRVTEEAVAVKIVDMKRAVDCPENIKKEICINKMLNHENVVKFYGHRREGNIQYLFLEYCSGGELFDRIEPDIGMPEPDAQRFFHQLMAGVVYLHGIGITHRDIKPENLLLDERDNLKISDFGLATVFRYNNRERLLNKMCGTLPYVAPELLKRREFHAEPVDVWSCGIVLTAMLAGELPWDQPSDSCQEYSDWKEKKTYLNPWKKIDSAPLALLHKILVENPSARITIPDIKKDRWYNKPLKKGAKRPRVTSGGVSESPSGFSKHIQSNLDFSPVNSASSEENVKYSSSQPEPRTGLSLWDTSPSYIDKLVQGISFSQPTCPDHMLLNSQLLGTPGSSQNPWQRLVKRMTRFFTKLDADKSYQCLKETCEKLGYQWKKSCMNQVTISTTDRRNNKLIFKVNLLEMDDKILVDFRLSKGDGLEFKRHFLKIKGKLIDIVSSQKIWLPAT
The following applies: read-out: CHK1, % of Control.

The target of experiment [3] is IR (Homo sapiens, UniProt P06213). As to conditions: read-out: IR, % of Control.
Experiment [4] addresses Bmx (Homo sapiens, UniProt P51813). As to conditions: 25 ug/ml; read-out: Bmx, % of Control.
Experiment [5] addresses MAPKAP-K3 (Homo sapiens, UniProt Q16644). As to conditions: read-out: MAPKAP-K3, % of Control.
Experiment [6] addresses TrkB (Homo sapiens, UniProt Q16620). As to conditions: read-out: TrkB, % of Control.
Experiment [7] deals with CDK2/cyclinA (Homo sapiens, UniProt P24941). As to conditions: read-out: CDK2/cyclinA, % of Control.
For experiment [8], the target named is ALK4 (Homo sapiens, UniProt P36896). As to conditions: read-out: ALK4, % of Control.
ALK4, sequence (P36896 24-505): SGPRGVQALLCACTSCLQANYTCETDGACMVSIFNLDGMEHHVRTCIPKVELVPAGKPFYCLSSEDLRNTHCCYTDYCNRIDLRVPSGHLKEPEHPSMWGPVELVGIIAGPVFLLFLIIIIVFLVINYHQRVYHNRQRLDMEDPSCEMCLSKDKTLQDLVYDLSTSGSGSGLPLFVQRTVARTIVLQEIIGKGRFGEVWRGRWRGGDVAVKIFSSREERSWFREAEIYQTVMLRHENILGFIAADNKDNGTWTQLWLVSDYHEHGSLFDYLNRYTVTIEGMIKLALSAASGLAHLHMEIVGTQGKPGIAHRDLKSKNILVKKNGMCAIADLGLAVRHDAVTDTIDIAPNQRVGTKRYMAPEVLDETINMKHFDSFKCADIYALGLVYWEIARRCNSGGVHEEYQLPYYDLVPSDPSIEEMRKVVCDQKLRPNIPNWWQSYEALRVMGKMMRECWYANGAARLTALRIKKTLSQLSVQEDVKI

TrkB, sequence (Q16620 32-822): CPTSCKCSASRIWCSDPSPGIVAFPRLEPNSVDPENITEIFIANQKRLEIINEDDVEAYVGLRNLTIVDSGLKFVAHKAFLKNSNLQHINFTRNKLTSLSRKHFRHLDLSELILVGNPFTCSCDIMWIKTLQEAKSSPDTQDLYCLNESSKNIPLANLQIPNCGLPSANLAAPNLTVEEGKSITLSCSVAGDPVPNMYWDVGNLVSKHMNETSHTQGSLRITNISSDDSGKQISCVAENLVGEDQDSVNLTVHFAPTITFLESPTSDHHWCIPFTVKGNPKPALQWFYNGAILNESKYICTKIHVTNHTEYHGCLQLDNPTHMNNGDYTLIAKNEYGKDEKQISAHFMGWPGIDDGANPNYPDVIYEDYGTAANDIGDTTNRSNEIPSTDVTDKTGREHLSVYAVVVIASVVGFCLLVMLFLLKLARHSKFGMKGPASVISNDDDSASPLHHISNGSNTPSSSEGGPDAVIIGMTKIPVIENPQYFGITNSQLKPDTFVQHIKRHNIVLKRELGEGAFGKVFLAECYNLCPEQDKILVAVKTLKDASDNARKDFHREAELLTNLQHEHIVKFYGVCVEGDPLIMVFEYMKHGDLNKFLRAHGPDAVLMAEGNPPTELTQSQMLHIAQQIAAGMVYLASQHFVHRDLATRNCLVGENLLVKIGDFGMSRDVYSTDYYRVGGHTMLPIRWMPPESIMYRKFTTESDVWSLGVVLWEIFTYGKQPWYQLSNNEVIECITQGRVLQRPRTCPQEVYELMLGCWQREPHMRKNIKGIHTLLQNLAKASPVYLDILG
IR, sequence (P06213 28-1382): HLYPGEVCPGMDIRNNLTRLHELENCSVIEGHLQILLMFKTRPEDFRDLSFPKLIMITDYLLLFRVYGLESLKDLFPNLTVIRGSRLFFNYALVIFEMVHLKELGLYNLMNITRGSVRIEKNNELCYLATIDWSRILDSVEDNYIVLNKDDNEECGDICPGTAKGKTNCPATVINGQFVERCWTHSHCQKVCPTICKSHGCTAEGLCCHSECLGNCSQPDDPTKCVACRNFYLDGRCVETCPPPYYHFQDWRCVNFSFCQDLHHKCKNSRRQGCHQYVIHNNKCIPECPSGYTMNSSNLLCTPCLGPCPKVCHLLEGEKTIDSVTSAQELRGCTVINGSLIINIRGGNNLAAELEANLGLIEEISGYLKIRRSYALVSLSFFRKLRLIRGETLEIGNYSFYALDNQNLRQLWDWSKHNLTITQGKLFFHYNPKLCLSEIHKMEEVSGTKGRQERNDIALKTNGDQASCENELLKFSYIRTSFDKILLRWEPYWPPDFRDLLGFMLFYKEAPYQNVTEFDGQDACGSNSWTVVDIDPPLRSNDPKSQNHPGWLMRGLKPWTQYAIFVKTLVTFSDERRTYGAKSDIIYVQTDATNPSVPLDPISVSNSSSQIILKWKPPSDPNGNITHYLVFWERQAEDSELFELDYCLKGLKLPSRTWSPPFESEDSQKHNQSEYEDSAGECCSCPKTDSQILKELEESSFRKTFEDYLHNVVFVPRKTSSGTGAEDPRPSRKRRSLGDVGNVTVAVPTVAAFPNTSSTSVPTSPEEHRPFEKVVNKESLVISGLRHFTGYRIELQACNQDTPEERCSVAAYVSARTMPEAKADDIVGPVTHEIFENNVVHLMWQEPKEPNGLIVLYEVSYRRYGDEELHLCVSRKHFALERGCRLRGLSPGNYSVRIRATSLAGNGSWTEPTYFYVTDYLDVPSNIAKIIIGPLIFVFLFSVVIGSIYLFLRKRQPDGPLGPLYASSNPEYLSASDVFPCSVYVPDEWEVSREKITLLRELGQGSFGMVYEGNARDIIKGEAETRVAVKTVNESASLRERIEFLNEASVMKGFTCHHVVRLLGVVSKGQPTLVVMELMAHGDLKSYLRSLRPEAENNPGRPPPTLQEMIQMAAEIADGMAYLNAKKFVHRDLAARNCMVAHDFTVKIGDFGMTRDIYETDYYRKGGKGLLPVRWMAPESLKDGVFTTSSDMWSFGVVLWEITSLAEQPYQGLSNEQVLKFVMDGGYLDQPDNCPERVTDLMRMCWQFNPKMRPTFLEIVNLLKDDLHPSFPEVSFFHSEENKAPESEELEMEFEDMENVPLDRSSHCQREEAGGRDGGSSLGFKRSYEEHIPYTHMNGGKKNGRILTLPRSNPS
MAPKAP-K3, sequence (Q16644 whole entry): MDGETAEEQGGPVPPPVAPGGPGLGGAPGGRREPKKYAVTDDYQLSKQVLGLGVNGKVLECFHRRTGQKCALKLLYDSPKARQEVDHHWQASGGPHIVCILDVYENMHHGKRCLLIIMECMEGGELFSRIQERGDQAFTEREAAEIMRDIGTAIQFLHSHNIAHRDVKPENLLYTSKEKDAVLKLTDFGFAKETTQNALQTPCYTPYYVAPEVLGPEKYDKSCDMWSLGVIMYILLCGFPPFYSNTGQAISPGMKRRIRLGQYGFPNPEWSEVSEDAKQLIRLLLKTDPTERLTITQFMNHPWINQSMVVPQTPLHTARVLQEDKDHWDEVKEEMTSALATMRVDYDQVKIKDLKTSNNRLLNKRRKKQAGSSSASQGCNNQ
Bmx, sequence (P51813 whole entry): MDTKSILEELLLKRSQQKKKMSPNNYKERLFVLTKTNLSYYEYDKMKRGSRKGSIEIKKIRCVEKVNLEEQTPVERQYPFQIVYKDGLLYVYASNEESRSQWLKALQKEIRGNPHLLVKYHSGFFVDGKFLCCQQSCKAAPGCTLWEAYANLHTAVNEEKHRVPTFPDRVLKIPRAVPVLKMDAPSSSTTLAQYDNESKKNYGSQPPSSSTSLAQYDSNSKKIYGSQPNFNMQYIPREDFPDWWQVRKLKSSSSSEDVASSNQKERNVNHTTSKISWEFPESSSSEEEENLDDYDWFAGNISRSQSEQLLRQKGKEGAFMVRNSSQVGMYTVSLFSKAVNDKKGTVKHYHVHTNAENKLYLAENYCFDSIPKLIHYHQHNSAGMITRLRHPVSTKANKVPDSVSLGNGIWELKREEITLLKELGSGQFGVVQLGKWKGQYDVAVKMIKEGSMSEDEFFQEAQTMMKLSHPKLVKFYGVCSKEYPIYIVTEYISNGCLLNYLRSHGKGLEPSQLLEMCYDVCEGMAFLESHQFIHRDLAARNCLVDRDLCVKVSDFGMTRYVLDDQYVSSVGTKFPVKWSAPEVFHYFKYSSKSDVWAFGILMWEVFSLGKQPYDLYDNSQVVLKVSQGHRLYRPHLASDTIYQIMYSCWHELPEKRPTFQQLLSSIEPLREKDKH

`COc1cc(O)c(CC=C(C)C)c(O)c1C(=O)/C=C/c1ccc(O)cc1` [Xanthohumol, xanthohumol]: the remaining activity at 1 µg/mL in experiment [1] (1 ug/ml) worked out at 103%; in experiment [2] (1 ug/ml), 121%; in experiment [3] (1 ug/ml) it was 120%; in experiment [6] (1 ug/ml), 95%; in experiment [7] (1 ug/ml) it was 107%; in experiment [8] (1 ug/ml), 116%. Besides, the remaining activity at 5 µg/mL was 92% in experiment [1] (5 ug/ml); 126% in experiment [2] (5 ug/ml); 108% in experiment [3] (5 ug/ml); 89% in experiment [6] (5 ug/ml); 96% in experiment [7] (5 ug/ml). Also, the remaining activity at 25 µg/mL in experiment [1] (25 ug/ml) is 29%; in experiment [2] (25 ug/ml), 142%; in experiment [4] it was 22%; in experiment [5] (25 ug/ml), 17%; in experiment [6] (25 ug/ml), 58%; in experiment [7] (25 ug/ml) it was 57%. Also, the remaining activity at 25 µg/mL in experiment [8] (25 ug/ml) is 71%. Besides, the remaining activity at 50 µg/mL came out at 19% in experiment [1] (50 ug/ml); 149% in experiment [2] (50 ug/ml); 7% in experiment [5] (50 ug/ml); 3% in experiment [6] (50 ug/ml); 6% in experiment [7] (50 ug/ml).
